Target: K. pneumoniae FtsZ (KpFtsZ) (Klebsiella pneumoniae, UniProt A0A0H3GRR0)
Assay: fluorescence anisotropy titration of intrinsically fluorescent RUP4 ([…]) with purified KpFtsZ, […] °C, […] fit
Format: binding

Sequence of K. pneumoniae FtsZ (KpFtsZ) (A0A0H3GRR0 entry or part of it): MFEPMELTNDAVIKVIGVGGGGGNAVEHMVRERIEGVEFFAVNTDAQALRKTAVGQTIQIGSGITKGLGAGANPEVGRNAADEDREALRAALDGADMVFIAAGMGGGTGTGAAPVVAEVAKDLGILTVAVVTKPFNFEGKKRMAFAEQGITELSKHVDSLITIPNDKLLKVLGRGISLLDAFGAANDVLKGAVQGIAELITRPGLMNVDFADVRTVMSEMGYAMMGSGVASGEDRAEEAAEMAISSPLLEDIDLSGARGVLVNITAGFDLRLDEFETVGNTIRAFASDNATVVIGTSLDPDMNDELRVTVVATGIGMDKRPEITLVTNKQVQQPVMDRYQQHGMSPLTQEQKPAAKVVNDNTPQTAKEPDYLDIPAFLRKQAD

With NC(=O)c1c(F)ccc(OC(CCNC(=O)c2ccc(O)c(O)c2Cl)c2nc(-c3ccc(C(F)(F)F)cc3)c(Br)o2)c1F (stereo not shown) [RUP4] the Kd was 49 ± 5 µM.

Reference: PMC10967458, “A FtsZ Inhibitor That Can Utilize Siderophore-Ferric Iron Uptake Transporter Systems for Activity against Gram-Negative Bacterial Pathogens” (Antibiotics, 2024)
